These results are taken from patent US8859559B2, “Substituted pyrazines and their use in the treatment of disease” (Boehringer Ingelheim International GmbH, priority 2011, dated 2014).

The assay has as its target T1, ENaC (Epithelial Sodium Channel) (Mus musculus, UniProt Q61180+Q9WU38+Q9WU39).
T1 construct: Mouse kidney M-1 cells were cultivated in DMEM; endogenous in cells; host or cells: Mouse kidney M-1 cells (dexamethasone-treated, on transwell filters)
T1 sequence (Q61180 1-699): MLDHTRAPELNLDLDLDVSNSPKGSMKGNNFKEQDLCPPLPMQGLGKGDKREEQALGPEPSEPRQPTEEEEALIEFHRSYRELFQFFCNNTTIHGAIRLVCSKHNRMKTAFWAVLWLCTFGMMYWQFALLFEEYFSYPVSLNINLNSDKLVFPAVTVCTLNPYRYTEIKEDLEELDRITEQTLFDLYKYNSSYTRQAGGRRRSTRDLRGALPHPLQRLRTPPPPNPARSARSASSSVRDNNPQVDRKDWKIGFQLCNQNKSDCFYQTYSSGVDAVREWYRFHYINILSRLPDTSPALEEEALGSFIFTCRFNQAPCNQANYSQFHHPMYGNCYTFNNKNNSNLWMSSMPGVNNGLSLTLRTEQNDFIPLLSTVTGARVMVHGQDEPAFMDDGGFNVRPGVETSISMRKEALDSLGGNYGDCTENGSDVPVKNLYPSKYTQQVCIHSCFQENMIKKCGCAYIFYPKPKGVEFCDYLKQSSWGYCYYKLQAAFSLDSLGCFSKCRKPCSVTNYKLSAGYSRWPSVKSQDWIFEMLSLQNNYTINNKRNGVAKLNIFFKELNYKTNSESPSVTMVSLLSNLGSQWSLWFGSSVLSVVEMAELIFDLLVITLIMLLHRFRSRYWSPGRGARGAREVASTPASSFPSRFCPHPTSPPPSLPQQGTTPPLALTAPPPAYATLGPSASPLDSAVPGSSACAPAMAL
T1 sequence (Q9WU38 1-638): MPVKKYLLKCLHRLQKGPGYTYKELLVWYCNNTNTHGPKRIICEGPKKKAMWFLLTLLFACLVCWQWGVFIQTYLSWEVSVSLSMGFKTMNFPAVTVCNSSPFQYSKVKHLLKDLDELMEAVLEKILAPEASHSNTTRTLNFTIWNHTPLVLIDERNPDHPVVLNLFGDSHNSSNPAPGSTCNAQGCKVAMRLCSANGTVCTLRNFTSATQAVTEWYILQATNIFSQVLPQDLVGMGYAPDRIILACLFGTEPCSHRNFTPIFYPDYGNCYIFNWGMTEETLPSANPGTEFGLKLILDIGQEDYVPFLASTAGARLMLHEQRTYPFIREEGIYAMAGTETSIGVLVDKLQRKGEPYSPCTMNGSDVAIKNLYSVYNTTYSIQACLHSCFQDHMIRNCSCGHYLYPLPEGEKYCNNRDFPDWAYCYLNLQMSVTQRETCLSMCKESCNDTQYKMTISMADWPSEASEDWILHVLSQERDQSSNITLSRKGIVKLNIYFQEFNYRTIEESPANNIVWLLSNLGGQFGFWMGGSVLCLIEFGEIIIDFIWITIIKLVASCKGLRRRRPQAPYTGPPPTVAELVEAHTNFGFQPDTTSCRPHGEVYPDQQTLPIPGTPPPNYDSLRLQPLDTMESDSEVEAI
T1 sequence (Q9WU39 1-655): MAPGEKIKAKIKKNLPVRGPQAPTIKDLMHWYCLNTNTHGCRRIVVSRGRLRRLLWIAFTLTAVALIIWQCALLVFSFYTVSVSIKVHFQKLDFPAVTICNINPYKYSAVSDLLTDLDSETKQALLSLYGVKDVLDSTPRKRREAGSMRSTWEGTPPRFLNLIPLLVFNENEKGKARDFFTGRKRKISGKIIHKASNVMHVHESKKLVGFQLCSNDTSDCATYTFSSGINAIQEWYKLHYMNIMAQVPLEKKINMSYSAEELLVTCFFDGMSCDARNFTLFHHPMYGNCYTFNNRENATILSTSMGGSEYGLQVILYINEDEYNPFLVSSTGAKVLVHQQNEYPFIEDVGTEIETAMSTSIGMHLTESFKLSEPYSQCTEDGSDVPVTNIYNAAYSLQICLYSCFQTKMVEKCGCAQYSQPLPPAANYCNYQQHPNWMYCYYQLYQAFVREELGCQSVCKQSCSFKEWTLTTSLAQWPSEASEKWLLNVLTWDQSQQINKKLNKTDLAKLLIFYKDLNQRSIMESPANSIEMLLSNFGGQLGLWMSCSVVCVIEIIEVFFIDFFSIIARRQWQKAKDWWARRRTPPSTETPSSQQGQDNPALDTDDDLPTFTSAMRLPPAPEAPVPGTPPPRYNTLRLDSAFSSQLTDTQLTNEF
The assay can be described thus: Ussing chamber: inhibition of amiloride sensitive short circuit current (I_sc) in M-1 cells. The conditions noted are these: mouse kidney M-1 cells. The assay is classed as cell-based. How it is done: Mouse kidney M-1 cells were cultivated in DMEM containing 5% FCS and 5 μM dexamethasone for 10 to 12 days on polyester transwell filters. Filters were inserted into a teflon-coated well-plate which fit into the in-house ussing chamber system. Prior to measurement the medium of M-1 cells was replaced with Caco-2 transport buffer (Invitrogen, Germany). During measurements, the Ussing chamber temperature was kept at 37° C. Short circuit currents (I_sc) were measured in the voltage-clamp mode using an in-house built amplifier (Boehringer Ingelheim, Biberach) with the software package Lab View for data acquisition and analysis. The transepithelial electrical resistance (TEER) was determined by the application of voltage steps of ±5 mV every 5 sec. Compounds were administered at a final concentration of 3 μM or at increasing concentrations (1-3-10 μM) to the apical solution. At the end of each experiment the amiloride sensitive I_SC was measured by adding 3 μM amiloride to the apical compartment. Results are expressed as inhibition in percent of the amiloride effect or as IC50. With the example compounds given above, the following IC50 values were determined in the Ussing Chamber assay: […]

By IC50 is commonly meant the concentration at which inhibition is half-maximal. As to `CN(C)Cc1cn(-c2ccc(CN3CCC(NC(N)=NC(=O)c4nc(Cl)c(N)nc4N)CC3)cc2)nn1` [Example 3.15], the IC50 is 2 nM. That is a single-digit nanomolar value.

Turning to `NC(=NC(=O)c1nc(Cl)c(N)nc1N)NC1CCN(Cc2ccc(-n3cc(CCC(=O)N(CCOCCOCCO)CCOCCOCCO)nn3)cc2)CC1` [Example 3.16], inhibition was half-maximal at 18 nM (IC50). Against the preceding compound, the IC50 is about 9-fold higher.

`CC(C)(C)[Si](C)(C)OCCN(CCO[Si](C)(C)C(C)(C)C)C(=O)c1ccc(=O)n(CCc2cn(-c3ccc(CN4CCC(NC(N)=NC(=O)c5nc(Cl)c(N)nc5N)CC4)cc3)nn2)c1` [Example 3.17]: half-maximal inhibition (IC50) was put at 3 nM.

`CN(Cc1cn(-c2ccc(CN3CCC(NC(N)=NC(=O)c4nc(Cl)c(N)nc4N)CC3)cc2)nn1)C(=O)CCNC(=O)OC(C)(C)C` [Example 3.18] yielded a concentration for half-maximal inhibition (IC50) of 5 nM.

As to `NC(=NC(=O)c1nc(Cl)c(N)nc1N)NC1CCN(Cc2ccc(-n3cc(COCC(CO)(CO)CO)nn3)cc2)CC1` [Example 3.19], the IC50 worked out at 8 nM.

The compound `CN(Cc1cn(-c2ccc(CN3CCC(NC(N)=NC(=O)c4nc(Cl)c(N)nc4N)CC3)cc2)nn1)C(=O)CCNCCOCCOCCOCCOC(c1ccccc1)(c1ccccc1)c1ccccc1` [Example 3.20] yielded a concentration for half-maximal inhibition (IC50) of 1 nM.

`NC(=NC(=O)c1nc(Cl)c(N)nc1N)NC1CCN(Cc2ccc(OCc3cn(CCOCCOCCOCCO)nn3)cc2)CC1` [Example 3.21]: the IC50 came out at 12 nM.

As for `[N-]=[N+]=NCCOCCOCCOCCn1cc(COc2ccc(CN3CCC(NC(N)=NC(=O)c4nc(Cl)c(N)nc4N)CC3)cc2)nn1` [Example 3.22], the IC50 came to 2 nM.

With `NC(=NC(=O)c1nc(Cl)c(N)nc1N)NC1CCN(Cc2ccc(OCc3cn(CCOCCOCCOCCOCCOCCOC(c4ccccc4)(c4ccccc4)c4ccccc4)nn3)cc2)CC1` [Example 3.23], the IC50 was found to be 13 nM.

Take `NC(=NC(=O)c1nc(Cl)c(N)nc1N)NC1CCN(Cc2ccc(OCc3cn(CCOCCOCCO)nn3)cc2)CC1` [Example 3.24]: the IC50 is 25 nM.

`NC(=NC(=O)c1nc(Cl)c(N)nc1N)NC1CCN(Cc2ccc(-c3cn(CCOCCOCCOCCO)nn3)cc2)CC1` [Example 3.26] had an IC50 of 8 nM.

For `NC(=NC(=O)c1nc(Cl)c(N)nc1N)NC1CCN(Cc2ccc(-c3cn(CCOCCOCCOCCOCCOCCO)nn3)cc2)CC1` [Example 3.27], 1 nM corresponded to half-maximal inhibition (IC50).

With `NC(=NC(=O)c1nc(Cl)c(N)nc1N)NC1CCN(Cc2ccc(-c3cn(CCOCCOCCOC(c4ccccc4)(c4ccccc4)c4ccccc4)nn3)cc2)CC1` [Example 3.28], the IC50 stood at 6 nM.

Compound `NC(=NC(=O)c1nc(Cl)c(N)nc1N)NC1CCN(Cc2ccc(-c3cn(CCOCCOCCOCCOCCOCCOCCOCCO)nn3)cc2)CC1` [Example 3.29] gave an IC50 of 12 nM.

Compound `NC(=NC(=O)c1nc(Cl)c(N)nc1N)NC1CCN(Cc2ccc(-c3cn(CCOCCOC(c4ccccc4)(c4ccccc4)c4ccccc4)nn3)cc2)CC1` [Example 3.30] had an IC50 of 1 nM.

`NC(=NC(=O)c1nc(Cl)c(N)nc1N)NC1CCN(Cc2ccc(-c3cn(CCOCCOCCOCCNC(=O)c4cc(OCCOCCOCCOCCOC(c5ccccc5)(c5ccccc5)c5ccccc5)cc(OCCOCCOCCOCCOC(c5ccccc5)(c5ccccc5)c5ccccc5)c4)nn3)cc2)CC1` [Example 3.31]: the IC50 worked out at 49 nM.

`[N-]=[N+]=NCCOCCOCCOCCn1cc(-c2ccc(CN3CCC(NC(N)=NC(=O)c4nc(Cl)c(N)nc4N)CC3)cc2)nn1` [Example 3.32] came in with an IC50 of 25 nM.

For the compound `NC(=NC(=O)c1nc(Cl)c(N)nc1N)NC1CCN(Cc2ccc(-c3cn(CCOCCOCCOCCNCCOCCOCCO)nn3)cc2)CC1` [Example 3.35], the IC50 amounted to 4 nM. This IC50 lies about 6.2-fold lower than the previous one.

In the case of `NC(=NC(=O)c1nc(Cl)c(N)nc1N)NC1CCN(Cc2cccc(-c3cn(CCOCCOCCOCCO)nn3)c2)CC1` [Example 3.36], the IC50 turned out to be 4 nM.

With `NC(=NC(=O)c1nc(Cl)c(N)nc1N)NC1CCN(Cc2cccc(-c3cn(CCOCCOCCOCCOCCOCCOC(c4ccccc4)(c4ccccc4)c4ccccc4)nn3)c2)CC1` [Example 3.37], the 50% inhibitory concentration (IC50) was found to be 9 nM. This IC50 lies about 2.2-fold higher than the previous one.

In turn, `CC[N+](CC)(CC)Cc1ccc(CCn2cc(-c3cccc(CN4CCC(NC(N)=NC(=O)c5nc(Cl)c(N)nc5N)CC4)c3)nn2)cc1` [Example 3.38] displayed an IC50 of 1 nM. This IC50 is about 9-fold lower than that of the compound before.

The compound `NC(=NC(=O)c1nc(Cl)c(N)nc1N)NC1CCN(Cc2cccc(-c3cn(CCOCCOCCOCCNCCOCCOCCOC(c4ccccc4)(c4ccccc4)c4ccccc4)nn3)c2)CC1` [Example 3.40] displayed an IC50 of 1 nM.

With `NC(=NC(=O)c1nc(Cl)c(N)nc1N)NC1CCN(Cc2ccc(C(=O)OCCCCc3cn(CCOCCOCCOCCO)nn3)cc2)CC1` [Example 3.42], the IC50 is 10 nM.

As to `NC(=NC(=O)c1nc(Cl)c(N)nc1N)NC1CCN(Cc2ccc(CCn3cc(CCC(=O)N4CCOCC4)nn3)cc2)CC1` [Example 3.43], inhibition was half-maximal at 15 nM (IC50).

Turning to `CC(=O)N1CCN(C(=O)CCc2cn(CCc3ccc(CN4CCC(NC(N)=NC(=O)c5nc(Cl)c(N)nc5N)CC4)cc3)nn2)CC1` [Example 3.44], 16 nM corresponded to half-maximal inhibition (IC50).

The compound `CN(Cc1cn(CCc2ccc(CN3CCC(N/C(N)=N/C(=O)c4nc(Cl)c(N)nc4N)CC3)cc2)nn1)C(=O)CCN` [Example 4.1] yielded an IC50 of 9 nM.

The compound `CN(Cc1cn(-c2ccc(CN3CCC(NC(N)=NC(=O)c4nc(Cl)c(N)nc4N)CC3)cc2)nn1)C(=O)CCN` [Example 4.2] returned an IC50 of 4 nM.

For the compound `N/C(=N\C(=O)c1nc(Cl)c(N)nc1N)NC1CCN(Cc2ccc(OCc3cn(CCOCCOCCOCCOCCOCCO)nn3)cc2)CC1` [Example 5.1], half-maximal inhibition (IC50) required 42 nM.

For the compound `CN(Cc1cn(CCc2ccc(CN3CCC(NC(N)=NC(=O)c4nc(Cl)c(N)nc4N)CC3)cc2)nn1)C(=O)CCNCCOCCOCCOCCO` [Example 5.2], it took 14 nM to reach half-maximal inhibition (IC50).

`CN(Cc1cn(-c2ccc(CN3CCC(NC(N)=NC(=O)c4nc(Cl)c(N)nc4N)CC3)cc2)nn1)C(=O)CCNCCOCCOCCOCCO` [Example 5.3]: half-maximal inhibition (IC50) required 2 nM. This IC50 lies about 7-fold lower than the previous one.

For `N/C(=N\C(=O)c1nc(Cl)c(N)nc1N)NC1CCN(Cc2ccc(-c3cn(CCOCCOCCO)nn3)cc2)CC1` [Example 5.4], the IC50 was 3 nM.

Compound `NC(=NC(=O)c1nc(Cl)c(N)nc1N)NC1CCN(Cc2ccc(-c3cn(CCOCCOCCOCCNC(=O)c4cc(OCCOCCOCCOCCO)cc(OCCOCCOCCOCCO)c4)nn3)cc2)CC1` [Example 5.5] displayed an IC50 of 109 nM.

Consider `NC(=NC(=O)c1nc(Cl)c(N)nc1N)NC1CCN(Cc2ccc(-c3cn(CCOCCO)nn3)cc2)CC1` [Example 5.6], for which the IC50 is 3 nM.
